Columns and labels:
Format in all cases: biochemical
plasma kallikrein (PK) = plasma kallikrein (PK) (Homo sapiens, UniProt P03952); experiment: Determining the inhibitory constants: inhibition of PK (substrate Bzl-Pro-Phe-Arg-pNA); conditions: Tris buffer pH 8.0, 25° C.; mean of at least three determinations
Protocol: (§1) The inhibitory effect for the individual enzymes was determined in analogy with a method which has already been described (Stürzebecher et al., J. Med. Chem. 40, 3091-3099, 1997).
(§2) After 3 min, the reaction was terminated by adding 25 μl of acetic acid (50%) and the absorption at […] was determined using a Microplate Reader (Labsystems iEMS Reader MF). The Ki values were determined, in accordance with Dixon (Biochem. J. 55, 170-171, 1953), by means of linear regression and using a computer program. The Ki values are the mean of at least three determinations.

human factor XIIa = target: T1, human factor XIIa (Homo sapiens, UniProt P00748); experiment: Inhibitory constants for factor XIIa (substrate H-D-HHT-Gly-Arg-pNA, Chromozym XII); conditions: read-out: Ki F XIIa
T1 construct: purchased Haemochrom Diagnostica GmbH, Essen, Germany
Protocol: as §1, §2
(§3) The inhibition of factor XIa and factor XIIa was determined in an analogous manner. When determining the inhibitory constants for human factor XIa (Haemochrom Diagnostica GmbH, Essen, Germany), H-D-Lys(Z)-Pro-Arg-pNA (Chromozym PCa, Roche Diagnostics GmbH, Mannheim, Germany) was used as the substrate.
H-D-HHT-Gly-Arg-pNA (Chromozym XII, Roche Diagnostics GmbH, Mannheim, Germany) was used as the substrate for measuring the inhibitory constants of human factor XIIa (Haemochrom Diagnostica GmbH, Essen, Germany).

human factor XIa = target: T2, human factor XIa (Homo sapiens, UniProt P03951); experiment: Inhibitory constants for factor XIa (substrate H-D-Lys(Z)-Pro-Arg-pNA, Chromozym PCa); conditions: read-out: Ki F XIa
T2 construct: purchased Haemochrom Diagnostica GmbH, Essen, Germany
Protocol: as §1, §2, §3

thrombin = thrombin (UniProt P00735); experiment: Inhibitory constants for thrombin; conditions: read-out: Ki Thrombin

plasma kallikrein (PK), sequence (P03952 391-638 limits assumed, species assumed): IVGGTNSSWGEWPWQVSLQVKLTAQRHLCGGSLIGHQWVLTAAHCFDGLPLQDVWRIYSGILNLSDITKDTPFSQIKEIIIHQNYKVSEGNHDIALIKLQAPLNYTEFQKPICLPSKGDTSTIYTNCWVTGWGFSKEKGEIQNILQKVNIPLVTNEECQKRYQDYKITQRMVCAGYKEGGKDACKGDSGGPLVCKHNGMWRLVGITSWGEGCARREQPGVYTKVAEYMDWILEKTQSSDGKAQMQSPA
plasma kallikrein (PK), sequence (P03952 20-390 partner limits assumed, species assumed): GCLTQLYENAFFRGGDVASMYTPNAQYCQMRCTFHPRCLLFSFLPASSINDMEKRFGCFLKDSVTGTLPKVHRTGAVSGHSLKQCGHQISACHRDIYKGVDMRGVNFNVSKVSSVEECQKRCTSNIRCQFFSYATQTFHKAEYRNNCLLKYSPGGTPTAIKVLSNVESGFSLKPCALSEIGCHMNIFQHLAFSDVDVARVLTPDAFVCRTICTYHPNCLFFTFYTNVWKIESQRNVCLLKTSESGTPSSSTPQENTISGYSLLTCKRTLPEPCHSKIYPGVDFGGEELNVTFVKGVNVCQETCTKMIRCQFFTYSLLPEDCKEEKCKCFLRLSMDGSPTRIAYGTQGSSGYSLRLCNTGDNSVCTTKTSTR
T2 sequence (P03951 388-625 limits assumed): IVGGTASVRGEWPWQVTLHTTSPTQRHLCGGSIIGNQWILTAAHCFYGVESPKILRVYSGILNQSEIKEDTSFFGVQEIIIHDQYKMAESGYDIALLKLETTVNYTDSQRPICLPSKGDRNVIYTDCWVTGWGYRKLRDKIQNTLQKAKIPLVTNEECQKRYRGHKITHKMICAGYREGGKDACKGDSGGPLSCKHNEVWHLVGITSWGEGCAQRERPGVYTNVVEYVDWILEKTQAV
T2 sequence (P03951 19-387 partner limits assumed): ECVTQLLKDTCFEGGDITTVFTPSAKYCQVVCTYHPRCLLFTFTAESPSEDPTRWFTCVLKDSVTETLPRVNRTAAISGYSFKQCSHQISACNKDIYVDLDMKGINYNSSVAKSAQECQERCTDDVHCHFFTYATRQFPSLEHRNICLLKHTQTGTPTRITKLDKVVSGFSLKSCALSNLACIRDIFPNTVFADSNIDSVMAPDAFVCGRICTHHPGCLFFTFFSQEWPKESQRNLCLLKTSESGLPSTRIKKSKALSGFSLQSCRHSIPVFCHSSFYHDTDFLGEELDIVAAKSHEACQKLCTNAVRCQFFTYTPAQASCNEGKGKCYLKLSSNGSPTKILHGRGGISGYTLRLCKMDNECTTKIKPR
T1 sequence (P00748 373-615 limits assumed, other chains not shown): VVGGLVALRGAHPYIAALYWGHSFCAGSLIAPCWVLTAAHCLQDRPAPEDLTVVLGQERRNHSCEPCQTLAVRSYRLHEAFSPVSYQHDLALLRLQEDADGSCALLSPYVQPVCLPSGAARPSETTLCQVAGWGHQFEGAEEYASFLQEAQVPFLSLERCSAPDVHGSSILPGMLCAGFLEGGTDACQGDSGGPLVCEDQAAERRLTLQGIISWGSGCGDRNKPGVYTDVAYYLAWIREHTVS

Compound	Ki (plasma kallikrein (PK)) [µM]	Ki (human factor XIIa) [µM]	Ki (human factor XIa) [µM]	Ki (thrombin) [µM]
N=C(N)c1ccc(CNC(=O)CNC(=O)C(CO)NS(=O)(=O)Cc2ccccc2)cc1 (centres unmarked) [Inhibitor 1]	1.7	16	2.2	13
C[C@H](NC(=O)[C@@H](CO)NS(=O)(=O)Cc1ccccc1)C(=O)NCc1ccc(C(=N)N)cc1 [Inhibitor 2]	0.07	9.2	0.11	0.11
N=C(N)c1ccc(CNC(=O)C2CCCN2C(=O)C(CO)NS(=O)(=O)Cc2ccccc2)cc1 (centres unmarked) [Inhibitor 3]	0.054	5.1	0.1	0.012
N=C(N)c1ccc(CNC(=O)[C@H](CC(=O)O)NC(=O)[C@@H](CO)NS(=O)(=O)Cc2ccccc2)cc1 [Inhibitor 4]	3.7	> 1000	–	> 1000
N=C(N)c1ccc(CNC(=O)[C@H](CCC(=O)O)NC(=O)[C@@H](CO)NS(=O)(=O)Cc2ccccc2)cc1 [Inhibitor 5]	1.1	> 1000	–	38
N=C(N)c1ccc(CNC(=O)[C@H](CCC(N)=O)NC(=O)[C@@H](CO)NS(=O)(=O)Cc2ccccc2)cc1 [Inhibitor 6]	0.047	25	0.13	0.49
N=C(N)c1ccc(CNC(=O)[C@H](CN)NC(=O)[C@@H](CO)NS(=O)(=O)Cc2ccccc2)cc1 [Inhibitor 8]	0.05	15	0.39	0.65
N=C(N)c1ccc(CNC(=O)[C@H](CNC(=O)OCc2ccccc2)NC(=O)[C@@H](CO)NS(=O)(=O)Cc2ccccc2)cc1 [Inhibitor 9]	0.042	13	0.28	6.9
N=C(N)c1ccc(CNC(=O)[C@H](CCCCN)NC(=O)[C@@H](CO)NS(=O)(=O)Cc2ccccc2)cc1 [Inhibitor 10]	0.016	21	0.89	4.3
N=C(N)c1ccc(CNC(=O)[C@H](CCCCNC(=O)OCc2ccccc2)NC(=O)[C@@H](CO)NS(=O)(=O)Cc2ccccc2)cc1 [Inhibitor 11]	0.0035	15	0.3	0.18
N=C(N)NCCC[C@H](NC(=O)[C@@H](CO)NS(=O)(=O)Cc1ccccc1)C(=O)NCc1ccc(C(=N)N)cc1 [Inhibitor 12]	0.079	16	0.77	4.7
C[C@@H](O)[C@H](NC(=O)[C@@H](CO)NS(=O)(=O)Cc1ccccc1)C(=O)NCc1ccc(C(=N)N)cc1 [Inhibitor 13]	0.24	51	0.25	4
C[C@@H](OCc1ccccc1)[C@H](NC(=O)[C@@H](CO)NS(=O)(=O)Cc1ccccc1)C(=O)NCc1ccc(C(=N)N)cc1 [Inhibitor 14]	0.091	23	0.33	0.3
N=C(N)c1ccc(CNC(=O)[C@H](CO)NC(=O)[C@@H](CO)NS(=O)(=O)Cc2ccccc2)cc1 [Inhibitor 15]	0.16	80	0.3	14
N=C(N)c1ccc(CNC(=O)[C@H](COCc2ccccc2)NC(=O)[C@@H](CO)NS(=O)(=O)Cc2ccccc2)cc1 [Inhibitor 16]	0.025	9.8	0.3	0.48
N=C(N)c1ccc(CNC(=O)C[C@H](CO)NC(=O)[C@@H](CO)NS(=O)(=O)Cc2ccccc2)cc1 [Inhibitor 17]	0.02	> 1000	–	8.5
N=C(N)c1ccc(CNC(=O)[C@H](Cc2ccccc2)NC(=O)[C@@H](CO)NS(=O)(=O)Cc2ccccc2)cc1 [Inhibitor 18]	0.021	0.97	0.92	1.6
N=C(N)c1ccc(CNC(=O)[C@H](CCc2ccccc2)NC(=O)[C@@H](CO)NS(=O)(=O)Cc2ccccc2)cc1 [Inhibitor 19]	0.048	2.8	0.084	1.2
N=C(N)c1ccc(CNC(=O)CNC(=O)[C@@H](CO)NS(=O)(=O)Cc2ccc(C(=O)O)cc2)cc1 [Inhibitor 20]	0.7	> 1000	0.6	170
COC(=O)c1ccc(CS(=O)(=O)N[C@H](CO)C(=O)NCC(=O)NCc2ccc(C(=N)N)cc2)cc1 [Inhibitor 21]	4.2	42	8.1	9.4
C[C@H](NC(=O)[C@@H](CO)NS(=O)(=O)Cc1ccc(C(=O)O)cc1)C(=O)NCc1ccc(C(=N)N)cc1 [Inhibitor 22]	0.016	17	0.015	2.3

Compound	Ki (plasma kallikrein (PK)) [µM]	Ki (human factor XIIa) [µM]	Ki (human factor XIa) [µM]	Ki (thrombin) [µM]
N=C(N)c1ccc(CNC(=O)[C@H](CO)NC(=O)[C@@H](CO)NS(=O)(=O)Cc2ccc(C(=O)O)cc2)cc1 [Inhibitor 23]	0.029	> 1000	0.17	120
COC(=O)c1ccc(CS(=O)(=O)N[C@H](CO)C(=O)N[C@@H](CO)C(=O)NCc2ccc(C(=N)N)cc2)cc1 [Inhibitor 24]	0.16	19	0.87	4.2
N=C(N)c1ccc(CNC(=O)CNC(=O)[C@@H](CO)NS(=O)(=O)Cc2ccc(CN)cc2)cc1 [Inhibitor 25]	6.3	17	6	8
C[C@@H](O)[C@H](NC(=O)[C@@H](COC(C)(C)C)NS(=O)(=O)Cc1ccccc1)C(=O)NCc1ccc(C(=N)N)cc1 [Inhibitor 38]	0.032	14	–	0.044
CC(C)(C)OC[C@@H](NS(=O)(=O)Cc1ccc(C(=O)O)cc1)C(=O)NCC(=O)NCc1ccc(C(=N)N)cc1 [Inhibitor 46]	0.029	7.5	–	2.2
N#Cc1cccc(CS(=O)(=O)N[C@H](CC2CCCCC2)C(=O)N2CCC[C@H]2C(=O)NCc2ccc(C(=N)N)cc2)c1 [Inhibitor 52]	0.086	13	–	< 0.001
CC(C)(C)OC[C@@H](NS(=O)(=O)Cc1ccccc1)C(=O)N[C@@H](CCCCNC(=O)C(F)(F)F)C(=O)NCc1ccc(C(=N)N)cc1 [Inhibitor 62]	0.011	6.1	–	0.0029
CC(C)(C)OC[C@@H](NS(=O)(=O)Cc1ccccc1)C(=O)N[C@@H](Cc1c[nH]cn1)C(=O)NCc1ccc(C(=N)N)cc1 [Inhibitor 64]	0.014	61	–	0.12
CC(C)(C)OC[C@@H](NS(=O)(=O)Cc1ccc(CC(=O)O)cc1)C(=O)N1CCC[C@H]1C(=O)NCc1ccc(C(=N)N)cc1 [Inhibitor 66]	0.016	4	–	0.0018
CC(C)(C)OC[C@@H](NS(=O)(=O)Cc1ccccc1)C(=O)N[C@@H](CCONC(=N)N)C(=O)NCc1ccc(C(=N)N)cc1 [Inhibitor 68]	0.019	6.8	–	0.038
N=C(N)c1ccc(CNC(=O)[C@H](CO)NC(=O)[C@@H](CCc2ccncc2)NS(=O)(=O)Cc2ccccc2)cc1 [Inhibitor 69]	0.02	1.6	–	0.91
CC(C)(C)OC[C@@H](NS(=O)(=O)Cc1ccc(C(=O)O)cc1)C(=O)N1CCC[C@H]1C(=O)NCc1ccc(C(=N)N)cc1 [Inhibitor 70]	0.025	2.4	–	0.0023
N=C(N)c1ccc(CNC(=O)[C@H](CCCCNC(=O)CCC(=O)O)NC(=O)[C@@H](CC2CCCCC2)NS(=O)(=O)Cc2ccccc2)cc1 [Inhibitor 71]	0.029	11	–	0.0021
N=C(N)c1ccc(CNC(=O)[C@H](CCC(=O)O)NC(=O)[C@@H](CCc2ccc(O)cc2)NS(=O)(=O)Cc2ccccc2)cc1 [Inhibitor 72]	0.22	0.36	0.028	–
N=C(N)c1ccc(CNC(=O)[C@H](CO)NC(=O)[C@@H](CCc2ccc(O)cc2)NS(=O)(=O)Cc2ccccc2)cc1 [Inhibitor 73]	0.13	0.28	0.078	–
N=C(N)c1ccc(CNC(=O)CNC(=O)[C@@H](CCc2ccc(O)cc2)NS(=O)(=O)Cc2ccccc2)cc1 [Inhibitor 75]	0.12	0.78	0.61	–
N=C(N)c1ccc(CNC(=O)CNC(=O)[C@@H](CCc2ccccc2)NS(=O)(=O)Cc2ccccc2)cc1 [Inhibitor 76]	0.39	0.15	0.27	–
N=C(N)c1ccc(CNC(=O)CNC(=O)[C@@H](CCc2ccccc2)NS(=O)(=O)Cc2ccc(N)cc2)cc1 [Inhibitor 78]	0.045	0.26	0.12	–
N=C(N)c1ccc(CNC(=O)CNC(=O)[C@H](NS(=O)(=O)Cc2ccccc2)C2Cc3ccccc3C2)cc1 [Inhibitor 83]	0.075	0.37	–	0.14
N=C(N)c1ccc(CNC(=O)CNC(=O)C(CCc2ccncc2)NS(=O)(=O)Cc2ccccc2)cc1 (centres unmarked) [Inhibitor 85]	0.13	0.4	1.1	–
N=C(N)c1ccc(CNC(=O)[C@H](CCCCNC(=O)CCCC(=O)O)NC(=O)[C@@H](CO)NS(=O)(=O)Cc2ccccc2)cc1 [Inhibitor 86]	0.39	–	–	2.8

— patent publication US9365613B2, “Acylated 4-amidino- and -4-guanidinobenzylamines for inhibition of plasma kallikrein” (The Medicines Company (Leipzig) GmbH, priority 2003, dated 2016)
